Like-named read-outs stand apart in the source and are kept apart here.
Tests used:
[1] = Elution rate in aqueous solutions of various pH and physiological saline solution; type: physicochemical
Procedure: After 40 ml of Japan Pharmacopoeia 1st solution (pH 1.2) was placed in a vessel whose temperature was kept constant in a thermostat at 37° C., 200 mg of TMS-19-Q was added and the mixture was stirred by a magnetic stirrer. […] Then, Japan Pharmacopoeia 2nd solution were mixed with the 1st solution, and by using aqueous solutions whose pH values were adjusted to be 2, 3, 4 and 5 and a physiological saline solution, respectively, elution rate of each thereof was measured.
To 40 ml of Japan Pharmacopoeia 1st solution (pH 1.2), 120 ml of water was added, and after the solution was kept in a constant temperature bath controlled at 37° C., 200 mg of midecamycin was added, and the mixture was stirred by a magnetic stirrer. Then, 5 ml aliquots of the solution were sampled in a lapse of time (at 5 minutes, 15 minutes and 30 minutes), and absorbances were measured (wavelength: 232 nm) and elution rate were calculated. Then, Japan Pharmacopoeia 1st solution and Japan Pharmacopoeia 2nd solution were mixed to prepare aqueous solutions whose pH values were adjusted to be 2, 3, 4 and 5, respectively. By using these solutions and physiological saline solution, the elution rates were calculated following the same procedures as those indicated above.
By following the same procedures and under the same conditions as those of Example 31, elution rates of 9-propionyljosamycin were measured.
By following the same procedures and under the same conditions as those of Example 31, elution rates of josamycin were measured.
In addition to the conditions of Example 31, Japan Pharmacopoeia 1st solution and Japan Parmacopoeia 2nd solution were mixed to prepare an aqueous solution having pH of 2.5, and following the same procedures as those of Example 31, elution rates of 9,3"-diacetylmidecamycin were measured.

[2] = Elution rate of TMS-19-Q with glycine and citric or tartaric acid in diluted physiological saline solution; type: physicochemical; conditions: for elution rate with 40 mg or more of citric acid: citric acid 40 mg or more, saline + water
Procedure: To 40 ml of physiological saline solution 120 ml of water was added, and after the solution was placed in a vessel whose temperature was kept constant in a thermostat at 37° C., 200 mg of TMS-19-Q, 340 mg of glycine and 0-80 mg of citric acid were added, and the mixture was stirred by a magnetic stirrer. Then sampling thereof was conducted in a lapse of time (at 5 minutes, 15 minutes and 30 minutes) to observe absorbance (wavelength: 232 nm) and elution rate was calculated.
To 40 ml of physiological saline solution 120 ml of water was added, and after the solution was kept in a vessel whose temperature was kept constant in a thermostat controlled at 37° C., 200 mg of TMS-19-Q, 340 mg of glycine and 0-80 mg of tartaric acid were added, and the same procedures as those of Example 27 were followed to examine the elution rate of TMS-19-Q.

[3] = AUC after oral administration of tablets to beagle dogs (bioassay of blood); type: in vivo; conditions: for AUC at 6 h: dog, blood, po, 500 mg
Procedure: An amount of the dissolution accelerators used, showing pH 2.5-4 in an aqueous solution will be described in detail. […] In all of these cases, the elution rate of 3"-propionylleucomycin A5 is less than 60%. […] In order to obtain their good absorbability, generally, it is necessary to use the pH at which the elution rate is favorable. […] The accelerators need to be used in 5-100 mg in formulating preparations. It is particularly preferred that these dissolution accelerators, for example tartaric acid and citric acid are used in a total amount of 40-100 mg at single administration. That is, one tablet is allowed to contain about 40-100 mg in the administration of one tablet a time, and about 20-50 mg each in two tablets a time. It is also particularly preferred, when the antibiotics are applied orally in the form of powders, fine granules, capsules, granules or dry syrups, that the accelerators are used in approximately 40-100 mg to the 16-membered ring macrolide antibiotics given in a 200 mg potency a time. It is suitable for preservation that these dissolution accelerators are used coated with film-forming substances by a microcapsulization technique using the accelerators as core materials.
To a mixture comprising TMS-19-Q and light anhydrous silicic acid, 10% w/w HPMC aqueous solution was added. Then the mixture was kneaded, dried and sieved by the use of a 24 mesh sieve to obtain Granule A.
To a mixture comprising glycine, citric acid anhydride and light silicic acid, 5% w/w HPMC aqueous solution was added as binder, and the mixture was made into granules by fluidized bed method (FB method). Then the granules were dried and sieved through 24 mesh screen to obtain Granule B.
To Granule A and Granule B, L-HPC and Avicel PH301 (to be adjusted by an amount of citric acid added: 52.7-12.7 g) and magnesium stearate were added and mixed. Then, the mixed powder was molded by pressure to the size of 14×8 mm and tablets were obtained, each of which (430 mg) containing 100 mg potency of TMS-19-Q 170 mg glycine and citric acid (0, 10, 20, 30 and 40 mg).

Compound: CCCC(=O)OC1C(C)OC(OC2C(C)OC(OC3C(CC=O)CC(C)C(O)/C=C/C=C/CC(C)OC(=O)CC(O)C3OC)C(O)C2N(C)C)CC1(C)OC(=O)CC (stereo not drawn) [TMS-19-Q, 3"-propionyl leucomycin A5]
- elution rate, pH 1.2, 2 and 3 ([1]; initial pH 1.2, 2 and 3, after 15-minute stirring, 37° C.): ≥ 90%
- elution rate, pH 4 and 5 ([1]; initial pH 4 and 5, after 15-minute stirring, 37° C.): 40-45%
- elution rate in pH 1.2-3 acidic aqueous solution (summary) ([1]; pH 1.2-3, general description): more than 95%
- elution rate in pH 4-5 weak acidic aqueous solution (summary) ([1]; pH 4-5, general description): less than 50%
- elution rate, physiological saline solution ([1]; physiological saline solution, after 15-minute stirring, 37° C.): 10%
- elution rate in physiological saline solution (summary) ([1]; physiological saline solution, general description): less than 15%
- time within which elution was nearly completed ([1]; solutions whose pH is equal to or less than 4.5): ≤ 15 min
- elution rate with 0, 10 or 20 mg of citric acid ([2]; 200 mg potency, 340 mg glycine, pH 5.87, 5.51, 5.18): less than 60%
- elution rate with 20 mg or 10 mg of citric acid ([2]; 340 mg glycine, citric acid 20 mg or 10 mg, after 15-minute stirring): 45-55%
- elution rate with 40 mg or more of citric acid ([2]; 340 mg glycine): ≥ 95%
- elution rate with 40 mg or more of citric acid ([2]; 340 mg glycine, listed as 3"-propionylleucomycin A5): more than 95%
- elution rate with 0 mg of citric acid ([2]; 340 mg glycine, no citric acid, after 15-minute stirring): 10%
- elution rate with 0 mg of tartaric acid ([2]; 340 mg glycine, no tartaric acid, after 15-minute stirring): 10%
- elution rate with 20 mg or 10 mg of tartaric acid ([2]; 340 mg glycine, tartaric acid 20 mg or 10 mg, after 15-minute stirring): 40-55%
- elution rate with 40 mg or more of tartaric acid ([2]; 340 mg glycine, tartaric acid 40 mg or more, value at 15 minutes): ≥ 95%
- time within which elution was nearly completed (citric acid) ([2]; citric acid, solutions whose pH is equal to or less than 4.23): ≤ 15 min
- time within which elution was nearly completed (tartaric acid) ([2]; tartaric acid, solutions whose pH is equal to or less than 4.09): ≤ 15 min
- AUC versus amount of citric acid (in words) ([3]; beagles, oral, citric acid 30-40 mg): reached saturation
- blood concentrations or absorbability (in words) ([3]; beagles, oral, citric acid more than 30 mg per tablet): Good blood concentrations or absorbability
- AUC at 6 h ([3]; read-out: AUC (area under a blood level versus time curve), 0 mg citric acid): 11800 ng·h/mL
- AUC at 6 h ([3]; read-out: AUC (area under a blood level versus time curve), 10 mg citric acid): 12300 ng·h/mL
- AUC at 6 h ([3]; read-out: AUC (area under a blood level versus time curve), 20 mg citric acid): 17000 ng·h/mL
- AUC at 6 h ([3]; read-out: AUC (area under a blood level versus time curve), 30 mg citric acid): 20500 ng·h/mL
- AUC at 6 h ([3]; read-out: AUC (area under a blood level versus time curve), 40 mg citric acid): 20900 ng·h/mL

Reference: US4716153A, “Stable oral preparation of macrolide antibiotics and method for stabilizing the same” (priority 1982, dated 1987)
